From ChEMBL document CHEMBL5223077, “Recent advances on synthesis and biological activities of aurones” (Bioorg Med Chem, 2021)
Values after ≈ are worked out from the molar mass of the structure shown.

Assays:
[1] = tested on: K562; test: Antiproliferative activity against human K562 cells assessed as cell growth inhibition at 10 uM relative to control; type: functional, cell-based
[2] = tested on: MDA-MB-435; test: Antiproliferative activity against human MDA-MB-435 cells assessed as cell growth inhibition at 10 uM relative to control; type: functional, cell-based
[3] = tested on: Mycobacterium tuberculosis; test: Antimycobacterial activity against Mycobacterium tuberculosis; type: functional
[4] = biological target: Tubulin; test: Inhibition of tubulin (unknown origin); type: protein-complex assay, Homo sapiens
[5] = biological target: Maltase-glucoamylase (Homo sapiens, UniProt O43451); test: Inhibition of alpha-glucosidase (unknown origin)
Chain of Maltase-glucoamylase (O43451 whole entry): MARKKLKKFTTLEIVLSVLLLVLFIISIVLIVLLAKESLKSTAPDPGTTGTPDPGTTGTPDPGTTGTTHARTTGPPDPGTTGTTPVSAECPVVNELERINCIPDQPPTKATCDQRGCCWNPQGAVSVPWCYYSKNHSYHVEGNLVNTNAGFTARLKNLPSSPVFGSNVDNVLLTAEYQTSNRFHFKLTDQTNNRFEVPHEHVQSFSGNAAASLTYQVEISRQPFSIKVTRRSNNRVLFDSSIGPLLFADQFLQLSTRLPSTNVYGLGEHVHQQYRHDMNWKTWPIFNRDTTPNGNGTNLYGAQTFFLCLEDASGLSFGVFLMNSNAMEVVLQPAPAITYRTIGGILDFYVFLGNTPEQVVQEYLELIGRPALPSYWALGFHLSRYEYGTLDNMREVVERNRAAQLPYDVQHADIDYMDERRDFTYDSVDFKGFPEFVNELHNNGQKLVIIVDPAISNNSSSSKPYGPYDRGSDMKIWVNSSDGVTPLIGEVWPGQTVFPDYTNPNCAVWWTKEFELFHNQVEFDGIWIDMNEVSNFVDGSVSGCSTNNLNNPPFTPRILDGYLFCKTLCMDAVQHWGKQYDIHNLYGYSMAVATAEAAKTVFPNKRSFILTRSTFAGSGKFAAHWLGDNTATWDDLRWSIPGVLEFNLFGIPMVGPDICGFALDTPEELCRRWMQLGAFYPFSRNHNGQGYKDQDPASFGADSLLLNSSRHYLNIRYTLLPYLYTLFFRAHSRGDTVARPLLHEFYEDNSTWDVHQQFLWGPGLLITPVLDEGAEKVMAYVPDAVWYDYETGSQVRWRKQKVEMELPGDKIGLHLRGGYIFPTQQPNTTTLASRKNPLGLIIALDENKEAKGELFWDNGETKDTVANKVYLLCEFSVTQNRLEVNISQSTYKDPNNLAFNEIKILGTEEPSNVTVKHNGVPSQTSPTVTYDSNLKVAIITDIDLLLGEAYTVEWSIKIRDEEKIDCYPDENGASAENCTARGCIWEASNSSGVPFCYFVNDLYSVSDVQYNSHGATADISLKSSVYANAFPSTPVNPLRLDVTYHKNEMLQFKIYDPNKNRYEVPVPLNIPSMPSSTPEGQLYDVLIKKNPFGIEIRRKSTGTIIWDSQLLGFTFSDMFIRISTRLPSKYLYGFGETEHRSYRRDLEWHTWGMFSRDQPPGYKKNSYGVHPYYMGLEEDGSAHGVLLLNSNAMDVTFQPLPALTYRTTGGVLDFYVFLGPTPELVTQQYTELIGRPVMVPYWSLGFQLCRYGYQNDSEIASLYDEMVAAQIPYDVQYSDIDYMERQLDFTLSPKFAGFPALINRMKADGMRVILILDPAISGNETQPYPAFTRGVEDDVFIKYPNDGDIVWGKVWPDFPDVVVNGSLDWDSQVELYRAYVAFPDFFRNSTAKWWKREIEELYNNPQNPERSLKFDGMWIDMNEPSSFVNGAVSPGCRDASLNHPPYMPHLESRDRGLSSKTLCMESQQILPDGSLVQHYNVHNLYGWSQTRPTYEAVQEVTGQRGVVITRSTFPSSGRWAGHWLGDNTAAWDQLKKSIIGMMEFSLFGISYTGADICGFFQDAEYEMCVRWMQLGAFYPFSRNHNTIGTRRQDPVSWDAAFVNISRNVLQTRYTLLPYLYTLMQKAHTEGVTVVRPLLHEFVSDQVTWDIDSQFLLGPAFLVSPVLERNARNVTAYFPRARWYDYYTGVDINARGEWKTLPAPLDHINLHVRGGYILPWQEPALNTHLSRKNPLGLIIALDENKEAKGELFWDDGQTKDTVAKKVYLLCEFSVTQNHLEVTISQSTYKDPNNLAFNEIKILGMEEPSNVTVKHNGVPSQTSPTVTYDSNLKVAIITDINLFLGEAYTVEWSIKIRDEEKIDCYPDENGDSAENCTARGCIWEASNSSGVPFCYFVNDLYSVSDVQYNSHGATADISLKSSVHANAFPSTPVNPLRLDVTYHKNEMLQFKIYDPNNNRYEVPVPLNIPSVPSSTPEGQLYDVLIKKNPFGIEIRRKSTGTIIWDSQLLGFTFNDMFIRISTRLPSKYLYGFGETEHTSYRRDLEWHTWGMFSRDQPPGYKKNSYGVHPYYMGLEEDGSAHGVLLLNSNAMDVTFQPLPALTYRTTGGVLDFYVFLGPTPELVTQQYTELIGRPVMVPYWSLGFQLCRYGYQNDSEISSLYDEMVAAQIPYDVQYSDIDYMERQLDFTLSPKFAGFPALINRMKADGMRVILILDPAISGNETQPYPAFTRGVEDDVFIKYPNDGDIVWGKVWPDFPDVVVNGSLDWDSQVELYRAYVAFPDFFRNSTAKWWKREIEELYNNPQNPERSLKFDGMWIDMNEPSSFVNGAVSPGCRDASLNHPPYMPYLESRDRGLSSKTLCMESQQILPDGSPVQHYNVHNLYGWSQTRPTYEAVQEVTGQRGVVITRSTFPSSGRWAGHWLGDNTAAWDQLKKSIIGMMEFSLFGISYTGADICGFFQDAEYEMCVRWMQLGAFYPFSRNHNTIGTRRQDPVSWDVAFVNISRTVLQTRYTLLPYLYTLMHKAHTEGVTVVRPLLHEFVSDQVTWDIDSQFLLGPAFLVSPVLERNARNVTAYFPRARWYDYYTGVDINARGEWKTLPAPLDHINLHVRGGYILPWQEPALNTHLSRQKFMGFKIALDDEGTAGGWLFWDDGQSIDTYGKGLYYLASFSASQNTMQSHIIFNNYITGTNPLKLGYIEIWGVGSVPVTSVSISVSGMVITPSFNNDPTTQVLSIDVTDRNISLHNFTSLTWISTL

[6] = tested on: HL-60; test: Antiproliferative activity against human HL-60 cells assessed as cell growth inhibition; type: functional, cell-based
[7] = tested on: HT-29; test: Antiproliferative activity against human HT-29 cells assessed as cell growth inhibition; type: functional, cell-based
[8] = Antioxidant activity assessed as DPPH radical scavenging activity relative to control; type: functional; set-up: concentration or dose not given beside the values
[9] = tested on: MES-SA; test: Antiproliferative activity against human MES-SA cells assessed as cell growth inhibition; type: functional, cell-based
[10] = tested on: MES-SA/Dx5; test: Antiproliferative activity against human MES-SA/Dx5 cells assessed as cell growth inhibition; type: functional, cell-based
[11] = tested on: Plasmodium falciparum; test: Antiplasmodial activity against Plasmodium falciparum 3D7; type: functional, organism-based
[12] = biological target: T1, Nitric oxide synthase, inducible (Mus musculus, UniProt P29477); test: Inhibition of iNOS expression in LPS-induced mouse RAW264.7 cells; type: cell-based
T1 sequence (P29477 whole entry): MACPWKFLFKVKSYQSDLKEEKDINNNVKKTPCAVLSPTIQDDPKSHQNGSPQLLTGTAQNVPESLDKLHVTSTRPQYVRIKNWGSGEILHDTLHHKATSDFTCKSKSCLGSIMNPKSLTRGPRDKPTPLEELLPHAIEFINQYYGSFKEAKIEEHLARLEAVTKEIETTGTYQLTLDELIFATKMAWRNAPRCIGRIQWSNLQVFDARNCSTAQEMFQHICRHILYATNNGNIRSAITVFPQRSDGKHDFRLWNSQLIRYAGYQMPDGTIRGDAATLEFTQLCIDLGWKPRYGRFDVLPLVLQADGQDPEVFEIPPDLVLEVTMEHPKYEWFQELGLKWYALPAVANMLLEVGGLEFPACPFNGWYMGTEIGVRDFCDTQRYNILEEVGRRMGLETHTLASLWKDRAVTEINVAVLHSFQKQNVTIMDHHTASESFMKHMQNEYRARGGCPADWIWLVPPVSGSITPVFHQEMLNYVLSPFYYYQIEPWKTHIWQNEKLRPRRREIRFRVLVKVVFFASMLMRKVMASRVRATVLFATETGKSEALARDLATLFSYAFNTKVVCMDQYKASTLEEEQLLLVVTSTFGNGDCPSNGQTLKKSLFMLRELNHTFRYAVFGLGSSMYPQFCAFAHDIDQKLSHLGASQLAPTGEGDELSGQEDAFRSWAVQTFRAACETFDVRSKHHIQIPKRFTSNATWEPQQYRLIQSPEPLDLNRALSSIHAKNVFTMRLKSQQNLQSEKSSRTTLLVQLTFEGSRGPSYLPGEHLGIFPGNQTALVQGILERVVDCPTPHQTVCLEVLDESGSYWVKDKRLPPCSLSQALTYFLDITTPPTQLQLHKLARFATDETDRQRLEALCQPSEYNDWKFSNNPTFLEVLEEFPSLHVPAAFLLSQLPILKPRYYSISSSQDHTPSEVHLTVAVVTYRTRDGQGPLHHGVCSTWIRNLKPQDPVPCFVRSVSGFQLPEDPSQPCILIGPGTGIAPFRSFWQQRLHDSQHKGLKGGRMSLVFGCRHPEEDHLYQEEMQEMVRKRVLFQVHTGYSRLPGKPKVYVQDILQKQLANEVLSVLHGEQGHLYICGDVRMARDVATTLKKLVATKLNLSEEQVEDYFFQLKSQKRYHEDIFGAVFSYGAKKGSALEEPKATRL

[13] = tested on: Bacillus subtilis; test: Antimicrobial activity against Bacillus subtilis assessed as inhibition of bacterial growth; type: functional
[14] = tested on: Staphylococcus aureus; test: Antimicrobial activity against Staphylococcus aureus assessed as inhibition of bacterial growth; type: functional
[15] = tested on: Candida albicans; test: Antifungal activity against Candida albicans assessed as inhibition of fungal growth; type: functional
[16] = Antioxidant activity assessed as DPPH radical scavenging activity; type: functional
[17] = tested on: Mycolicibacterium smegmatis; test: Anti-mycobacterial activity against Mycobacterium smegmatis assessed as inhibition of bacterial growth; type: functional
[18] = tested on: Fusarium oxysporum; test: Antifungal activity against Fusarium oxysporum assessed as inhibition of fungal growth; type: functional
[19] = Antioxidant activity assessed as ABTS radical scavenging activity; type: functional
[20] = tested on: Plasmodium falciparum; test: Antiplasmodial activity against Plasmodium falciparum D6; type: functional, organism-based
[21] = tested on: Plasmodium falciparum; test: Antiplasmodial activity against Plasmodium falciparum W2; type: functional, organism-based
[22] = Inhibition of CDK5/p25 (unknown origin); set-up: species or system Homo sapiens

For `COc1cc(/C=C2\Oc3cc4occc4c(OC)c3C2=O)ccc1OCC(=O)Nc1ccccc1`, the inhibition of growth at 10 µM ([1]; dose 10 µM, read-out: GI) was 70.3%, the IC50 [2] was 7.05 µM and the inhibition of growth at 10 µM ([2]; dose 10 µM, read-out: GI) was 79.6%.
With `CC(=O)N1/C(=C\c2ccc(-c3cncc4ccccc34)cc2)C(=O)c2ccccc21` the MIC99 [3] was 0.74 µM (≈ 0.289 µg/mL).
`O=C1/C(=C/c2ccncc2)Oc2cc(OCc3c(Cl)cccc3Cl)ccc21` showed an IC50 [4] of 66 µM.
For `CC(C)=CCc1c(O)ccc2c1O/C(=C\c1ccc(O)cc1)C2=O`, the IC50 [5] was 73.8 µM.
Work on `COc1ccc2c(c1)O/C(=C\c1ccc(C(F)(F)F)cc1)C2=O` yielded an IC50 [6] of 2.59 µM and an IC50 [7] of 5.9 µM.
With `COc1ccc2c(c1OC)O/C(=C\c1ccc(O)c(O)c1)C2=O` the Activity [8] was 85.8%.
`O=C1/C(=C/c2ccc(C(F)(F)F)cc2)Oc2cc(OCc3ccccc3)ccc21` showed an IC50 [6] of 3.46 µM and an IC50 [7] of 4.12 µM.
`COc1cc2c(c(OC)c1)C(=O)/C(=C/c1ccc(C(C)C)cc1)N2` gave an IC50 [9] of 17.1 µM and an IC50 [10] of 5.8 µM.
Compound `COc1cc(/C=C2\Oc3c(ccc(O)c3OC)C2=O)ccc1O` has an Activity [8] of 47.4%.
In the case of `CCOc1c(Br)cc(/C=C2\Oc3cc(OC)cc(OC)c3C2=O)cc1OC`, the IC50 [11] is reported as 7.27 µM.
Work on `CC1(C)CCc2c(ccc3c2O/C(=C\c2ccc(O)c(O)c2)C3=O)O1` yielded an IC50 [12] of 8.09 µM.
For `COc1cc2c(c(OC)c1)C(=O)/C(=C/c1c(C)c(C)cc(C)c1C)N2`, the IC50 [9] was 9.2 µM and the IC50 [10] was 19.5 µM.
`CC(=O)N1/C(=C\c2ccc(-c3ccsc3)cc2)C(=O)c2ccccc21` gave an MIC99 [3] of 0.6 µM (≈ 0.207 µg/mL).
In the case of `O=C1/C(=C/c2cc3cc(Br)ccc3nc2Cl)Oc2cc(O)cc(O)c21`, the MIC [13] is reported as 313 µg/mL (≈ 748 µM), the MIC [14] is reported as 1250 µg/mL (≈ 2990 µM) and the MIC [15] is reported as 78 µg/mL (≈ 186 µM).
In the case of `COc1ccc2c(c1)O/C(=C\c1cc(O)ccc1O)C2=O`, the IC50 [16] is reported as 35.9 µM.
In the case of `CCCCCCCOc1ccc2c(c1)O/C(=C\c1ccc(C(F)(F)F)cc1)C2=O`, the IC50 [6] is reported as 2.67 µM and the IC50 [7] is reported as 4.32 µM.
For `Cc1ccc2cc(/C=C3\Oc4cc(O)cc(O)c4C3=O)c(Cl)nc2c1C`, the MIC [13] was 625 µg/mL (≈ 1700 µM) and the MIC [14] was 1250 µg/mL (≈ 3400 µM).
For `Cc1cc(C)c2cc(/C=C3\Oc4cc(O)cc(O)c4C3=O)c(Cl)nc2c1`, the MIC [13] was 156 µg/mL (≈ 424 µM), the MIC [14] was 2500 µg/mL (≈ 6800 µM) and the MIC [17] was 78 µg/mL (≈ 212 µM). For the same compound, the MIC [18] was 313 µg/mL (≈ 851 µM) and the MIC [15] was 156 µg/mL (≈ 424 µM).
For `CC1(C)CCc2c(ccc3c2O/C(=C\c2ccccn2)C3=O)O1`, the IC50 [12] was 8.41 µM.
Compound `COc1cc(OC)c(C2=CCN(Cc3ccccc3)CC2)c2c1C(=O)/C(=C/c1ccc(F)cc1)O2` has an IC50 [19] of 71.7 µM.
Compound `O=C1/C(=C/c2ccc(Cl)cc2)Oc2ccccc21` has an IC50 [16] of 92 µM.
Work on `COc1cc(/C=C2\Oc3c(ccc4c3CCC(C)(C)O4)C2=O)ccc1O` yielded an IC50 [12] of 5.22 µM.
Compound `COc1ccc(/C=C2\Oc3c(ccc(OC)c3OC)C2=O)cc1O` has an Activity [8] of 8.9%.
`CCCOc1c(Br)cc(/C=C2\Oc3cc(OC)cc(OC)c3C2=O)cc1OC` gave an IC50 [11] of 2.3 µM.
With `COc1cc(OC)c2c(c1)O/C(=C\c1ccccc1)C2=O` the IC50 [20] was 16.9 µM and the IC50 [21] was 16.9 µM.
With `O=C1c2ccccc2OC1(O)Cc1ccc(Cl)cc1` (centres undefined) the IC50 [16] was 54 µM.
With `CC1(C)CCc2c(ccc3c2O/C(=C\c2cccc(O)c2)C3=O)O1` the IC50 [12] was 10.8 µM.
`O=C1/C(=C/c2ccc(C(F)(F)F)cc2)Oc2cc(O)ccc21` gave an IC50 [6] of 1.54 µM and an IC50 [7] of 8.9 µM.
Work on `COc1cc(/C=C2\Oc3c(ccc(OC)c3OC)C2=O)ccc1O` yielded an Activity [8] of 32.8%.
In the case of `COc1cc(OC)c(C2=CCN(Cc3ccccc3)CC2)c2c1C(=O)/C(=C/c1ccc(Br)cc1)O2`, the IC50 [19] is reported as 87 µM.
`CCCCc1ccc(/C=C2\Nc3cc(OC)cc(OC)c3C2=O)cc1` showed an IC50 [9] of 17.8 µM and an IC50 [10] of 3.7 µM.
With `CCOc1ccc2c(c1)O/C(=C\c1ccc(C(F)(F)F)cc1)C2=O` the IC50 [6] was 1.65 µM and the IC50 [7] was 9.12 µM.
`C=CCOc1ccc2c(c1)O/C(=C\c1ccc(C(F)(F)F)cc1)C2=O` showed an IC50 [6] of 3.53 µM and an IC50 [7] of 4.12 µM.
For `O=C1/C(=C/c2ccc(O)c(O)c2)Oc2cc(O)cc(O)c21` [AUREUSIDIN], the IC50 [22] was 4.81 µM.
`C#Cc1cccc(Nc2ncnc3cc(OCCOC)c(OCCOC)cc23)c1` [ERLOTINIB] showed an IC50 [1] of 3.29 µM and an IC50 [2] of 7.05 µM.
Work on `COc1c(O)ccc2c1O/C(=C\c1ccc(O)c(O)c1)C2=O` yielded an Activity [8] of 84.2%.
Compound `Cc1ccc(/C=C2\Oc3c(ccc4c3CCC(C)(C)O4)C2=O)o1` has an IC50 [12] of 11.9 µM.
`COc1cc(OC)c2c(c1)O/C(=C\c1ccc(OC)c(OC)c1)C2=O` [4,6,3',4'-TETRAMETHOXYAURONE] gave an IC50 [11] of 7.82 µM, an IC50 [20] of 13.9 µM and an IC50 [21] of 13.9 µM.
`COc1cc2c(c(OC)c1)C(=O)/C(=C/c1ccc(C(C)(C)C)cc1)N2` gave an IC50 [9] of 11.9 µM and an IC50 [10] of 3.4 µM.
In the case of `CC(=O)N1/C(=C\c2ccc(Br)cc2)C(=O)c2ccccc21`, the MIC99 [3] is reported as 0.37 µM (≈ 0.127 µg/mL).
`CC1(C)CCc2c(ccc3c2O/C(=C\c2ccccc2)C3=O)O1` gave an IC50 [12] of 12.2 µM.
With `O=C1/C(=C/c2cc3ccccc3nc2Cl)Oc2cc(O)cc(O)c21` the MIC [13] was 20 µg/mL (≈ 58.9 µM), the MIC [14] was 1250 µg/mL (≈ 3680 µM) and the MIC [17] was 625 µg/mL (≈ 1840 µM). The MIC [18] was 625 µg/mL (≈ 1840 µM).
In the case of `CCn1cc(/C=C2\Oc3cc(OCC#N)cc(O)c3C2=O)c2cc(OC)ccc21`, the IC50 [4] is reported as 58.6 µM.
